Where two headings read alike, the source gives them in different places.
Tests used:
SXFS U-2197 = assay: 2D monolayer CellTiter-Blue viability, soft tissue sarcoma U-2197; assay type: cell-based; settings: 72 h
Method: (§1) Seventeen compounds, including mebendazole (Batch no. […] Efficacy of compounds was assessed using CellTiter-Blue® Cell Viability Assay. Anti-tumor activity is expressed as absolute and relative IC50 and IC70 values, calculated by non-linear regression analysis.

CYP2B6 = molecular target: T1, CYP2B6 (Homo sapiens, UniProt P20813); assay: Cytochrome P450 reaction phenotyping, recombinant CYP2B6 (Bactosomes)
T1 sequence (P20813 1-491): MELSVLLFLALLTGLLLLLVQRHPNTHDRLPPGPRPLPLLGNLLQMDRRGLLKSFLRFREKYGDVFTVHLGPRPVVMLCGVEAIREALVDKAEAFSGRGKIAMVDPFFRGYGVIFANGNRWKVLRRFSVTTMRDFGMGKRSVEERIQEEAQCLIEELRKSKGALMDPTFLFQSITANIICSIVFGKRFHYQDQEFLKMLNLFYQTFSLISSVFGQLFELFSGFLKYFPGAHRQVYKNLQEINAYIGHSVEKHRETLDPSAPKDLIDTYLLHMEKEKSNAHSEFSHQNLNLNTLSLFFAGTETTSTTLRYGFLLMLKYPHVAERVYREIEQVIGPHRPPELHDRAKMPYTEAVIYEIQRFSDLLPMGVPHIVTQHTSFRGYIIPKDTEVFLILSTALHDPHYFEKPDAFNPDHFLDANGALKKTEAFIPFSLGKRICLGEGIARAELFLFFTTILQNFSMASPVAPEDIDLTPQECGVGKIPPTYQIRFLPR
Method: Incubations were also performed using control Bactosomes™ (no P450 enzymes present) to reveal any non-enzymatic degradation. Control compounds known to be metabolised specifically by each P450 isoform were included. All incubations were performed singularly for each test compound.
Incubations were also performed using control Bactosomes™ (no P450 enzymes present) to reveal any non-enzymatic degradation. Control compounds known to be metabolised specifically by each P450 isoform were included. All incubations were performed singularly for each test compound. […] The reactions were stopped by transferring an aliquot of incubate to quench solvent at the appropriate time points, in a 1:3 ratio. The termination plates were centrifuged at 3,000 rpm for 20 min at 4° C. to precipitate the protein.

in vitro = settings: human, cryopreserved hepatocytes (suspension)
Method: The amount of test compound remaining at each time point was analysed by LC-MS/MS. Appropriate control compounds were also incubated.
The final incubation volume was 500 μL. Appropriate control compounds were included, alongside appropriate vehicle control.
The reactions were stopped by transferring 50 μL of incubate to 100 μL acetonitrile containing internal standard at the appropriate time points (0, 5, 10, 20, 40 and 60 min). The termination plates were centrifuged at 2500 rpm at 4° C. for 30 min to precipitate the protein.

NBXF KELLY = assay: 2D monolayer CellTiter-Blue viability, neuroblastoma KELLY; assay type: cell-based; settings: 72 h
Method: as §1

SK-OV-3 = assay: 2D monolayer CellTiter-Blue viability, ovarian cancer SK-OV-3; assay type: cell-based; settings: for IC50: Homo sapiens; for Test/Control (%) at Drug Concentration: 72 h
Method: (§2) Mebendazole was tested in vitro across a panel of 12 tumor cell lines of ovarian and renal cancer by using a 2D monolayer assay. […] OVXF 899L and RXF 486L are P-gp expressing, multidrug resistant cell lines.
(§3) Anti-tumor activity is expressed as absolute and relative IC50/70 values, calculated by 4-parameter non-linear curve fit.

NBXF IMR-32 = assay: 2D monolayer CellTiter-Blue viability, neuroblastoma IMR-32; assay type: cell-based; settings: 72 h
Method: as §1

NBXF SK-N-MC = assay: 2D monolayer CellTiter-Blue viability, neuroblastoma SK-N-MC; assay type: cell-based; settings: 72 h
Method: as §1

OVXF 899L = assay: 2D monolayer CellTiter-Blue viability, ovarian cancer OVXF 899L (P-gp expressing, multidrug resistant); assay type: cell-based; settings: for Test/Control (%) at Drug Concentration: 72 h; for IC50: OVXF 899L
Method: as §2, §3

In the case of COC(=O)Nc1nc2ccc(C(=O)c3ccccc3)cc2[nH]1 [Mebendazole, methyl N-(6-benzoyl-1H-benzimidazol-2-yl)carbamate], the “Test/Control (%) at Drug Concentration” value (SXFS U-2197; U-2197, 1.0E+00 μM) is reported as 42%, the “Test/Control (%) at Drug Concentration” value (SXFS U-2197; U-2197, 1.0E+01 μM) is reported as 37% and the “Test/Control (%) at Drug Concentration” value (SXFS U-2197; U-2197, 1.0E+02 μM) is reported as 18%. The “Test/Control (%) at Drug Concentration” value (SXFS U-2197; U-2197, 1.0E−01 μM) was 91%, the “Test/Control (%) at Drug Concentration” value (SXFS U-2197; U-2197, 1.0E−02 μM) was 93% and the “Test/Control (%) at Drug Concentration” value (SXFS U-2197; U-2197, 3.2E+00 μM) was 44%. The “Test/Control (%) at Drug Concentration” value (SXFS U-2197; U-2197, 3.2E+01 μM) was 36%, the “Test/Control (%) at Drug Concentration” value (SXFS U-2197; U-2197, 3.2E−01 μM) was 79% and the “Test/Control (%) at Drug Concentration” value (SXFS U-2197; U-2197, 3.2E−02 μM) was 93%. The “Test/Control (%) at Drug Concentration” value (SXFS U-2197; U-2197, 3.2E−03 μM) was 93%, the “Compound Remaining (% of 0 min)” value (CYP2B6; CYP2B6, 5 μM, 0 min) was 100 % of 0 min and the “Compound Remaining (% of 0 min)” value (CYP2B6; CYP2B6, 5 μM, 5 min) was 117 % of 0 min. The “Compound Remaining (% of 0 min)” value (CYP2B6; CYP2B6, 5 μM, 15 min) was 108 % of 0 min, the “Compound Remaining (% of 0 min)” value (CYP2B6; CYP2B6, 5 μM, 30 min) was 112 % of 0 min and the “Compound Remaining (% of 0 min)” value (CYP2B6; CYP2B6, 5 μM, 45 min) was 113 % of 0 min. For the same compound, the “% compound remaining” value (CYP2B6; CYP2B6, 5 μM, time not stated) was over 87.5%, the t1/2 (CYP2B6; CYP2B6, substrate 5 μM) was over 2.25 h and the half-life at 5 μM (CYP2B6; human, recombinant CYP2B6 (Bactosomes), pH 7.4) was over 2.25 h. The half-life at 1 μM (in vitro) was 1.52 h, the hepatocyte CLint at 1 µM (in vitro) was 15.2 µL/min/1e6 cells and the half-life at 1 μM (in vitro; with fluvoxamine 10 μM) was 30.7 h. For the same compound, the hepatocyte CLint at 1 µM (in vitro; with fluvoxamine 10 μM) was 0.751 µL/min/1e6 cells, the half-life at 1 μM (in vitro; with fluvoxamine 300 μM) was 3.75 h and the hepatocyte CLint at 1 µM (in vitro; with fluvoxamine 300 μM) was 6.16 ± 1.7 µL/min/1e6 cells. For the same compound, the half-life at 1 μM (in vitro; with mexiletine 10 μM) was 2.27 h, the half-life at 1 μM (in vitro; with mexiletine 30 μM) was 11.9 h and the half-life at 1 μM (in vitro; with mexiletine 100 μM) was 5.28 h. The half-life at 1 μM (in vitro; with mexiletine 300 μM) was 11.1 h, the hepatocyte CLint at 1 µM (in vitro; with mexiletine 300 μM) was 2.08 ± 1.8 µL/min/1e6 cells and the “Test/Control (%) at Drug Concentration” value (NBXF KELLY; 1.0E+00 μM) was 6%. The “Test/Control (%) at Drug Concentration” value (NBXF KELLY; 1.0E+01 μM) was −1%, the “Test/Control (%) at Drug Concentration” value (NBXF KELLY; 1.0E+02 μM) was −1% and the “Test/Control (%) at Drug Concentration” value (NBXF KELLY; 1.0E−01 μM) was 91%. The “Test/Control (%) at Drug Concentration” value (NBXF KELLY; 1.0E−02 μM) was 99%, the “Test/Control (%) at Drug Concentration” value (NBXF KELLY; 3.2E+00 μM) was −1% and the “Test/Control (%) at Drug Concentration” value (NBXF KELLY; 3.2E+01 μM) was −1%. The “Test/Control (%) at Drug Concentration” value (NBXF KELLY; 3.2E−01 μM) was 75%, the “Test/Control (%) at Drug Concentration” value (NBXF KELLY; 3.2E−02 μM) was 99% and the “Test/Control (%) at Drug Concentration” value (NBXF KELLY; 3.2E−03 μM) was 106%. For the same compound, the IC50 (SK-OV-3; SK-OV-3, 72 h, read-out: Abs. IC50) was 1200 nM, the IC50 (SK-OV-3; SK-OV-3, 72 h, read-out: Rel. IC50) was 476 nM and the “Test/Control (%) at Drug Concentration” value (SK-OV-3; SK-OV-3, 1.0E+00 μM) was 52%. For the same compound, the “Test/Control (%) at Drug Concentration” value (SK-OV-3; SK-OV-3, 1.0E−01 μM) was 99%, the “Test/Control (%) at Drug Concentration” value (SK-OV-3; SK-OV-3, 1.0E−02 μM) was 98% and the “Test/Control (%) at Drug Concentration” value (SK-OV-3; SK-OV-3, 1.0E−03 μM) was 100%. For the same compound, the “Test/Control (%) at Drug Concentration” value (SK-OV-3; SK-OV-3, 1.0E−04 μM) was 94%, the “Test/Control (%) at Drug Concentration” value (SK-OV-3; SK-OV-3, 3.2E+00 μM) was 45% and the “Test/Control (%) at Drug Concentration” value (SK-OV-3; SK-OV-3, 3.2E−01 μM) was 84%. For the same compound, the “Test/Control (%) at Drug Concentration” value (SK-OV-3; SK-OV-3, 3.2E−02 μM) was 102%, the “Test/Control (%) at Drug Concentration” value (SK-OV-3; SK-OV-3, 3.2E−03 μM) was 101% and the “Test/Control (%) at Drug Concentration” value (SK-OV-3; SK-OV-3, 3.2E−04 μM) was 104%. For the same compound, the “Abs. IC70” value (SK-OV-3; SK-OV-3, 72 h) was over 3200 nM, the “Rel. IC70” value (SK-OV-3; SK-OV-3, 72 h) was 679 nM and the “Bot. (%)” value (SK-OV-3; SK-OV-3, 72 h, curve fit) was 44%. For the same compound, the “Top (%)” value (SK-OV-3; SK-OV-3, 72 h, curve fit) was 100%, the “Test/Control (%) at Drug Concentration” value (NBXF IMR-32; IMR-32, 1.0E+00 μM) was 1% and the “Test/Control (%) at Drug Concentration” value (NBXF IMR-32; IMR-32, 1.0E+01 μM) was 0%. For the same compound, the “Test/Control (%) at Drug Concentration” value (NBXF IMR-32; IMR-32, 1.0E+02 μM) was −2%, the “Test/Control (%) at Drug Concentration” value (NBXF IMR-32; IMR-32, 1.0E−01 μM) was 81% and the “Test/Control (%) at Drug Concentration” value (NBXF IMR-32; IMR-32, 1.0E−02 μM) was 95%. The “Test/Control (%) at Drug Concentration” value (NBXF IMR-32; IMR-32, 3.2E+00 μM) was 1%, the “Test/Control (%) at Drug Concentration” value (NBXF IMR-32; IMR-32, 3.2E+01 μM) was −1% and the “Test/Control (%) at Drug Concentration” value (NBXF IMR-32; IMR-32, 3.2E−01 μM) was 10%. The “Test/Control (%) at Drug Concentration” value (NBXF IMR-32; IMR-32, 3.2E−02 μM) was 94%, the “Test/Control (%) at Drug Concentration” value (NBXF IMR-32; IMR-32, 3.2E−03 μM) was 97% and the “Test/Control (%) at Drug Concentration” value (NBXF SK-N-MC; 1.0E+00 μM) was 33%. For the same compound, the “Test/Control (%) at Drug Concentration” value (NBXF SK-N-MC; 1.0E+01 μM) was 1%, the “Test/Control (%) at Drug Concentration” value (NBXF SK-N-MC; 1.0E+02 μM) was 0% and the “Test/Control (%) at Drug Concentration” value (NBXF SK-N-MC; 1.0E−01 μM) was 90%. For the same compound, the “Test/Control (%) at Drug Concentration” value (NBXF SK-N-MC; 1.0E−02 μM) was 88%, the “Test/Control (%) at Drug Concentration” value (NBXF SK-N-MC; 3.2E+00 μM) was 6% and the “Test/Control (%) at Drug Concentration” value (NBXF SK-N-MC; 3.2E+01 μM) was 1%. The “Test/Control (%) at Drug Concentration” value (NBXF SK-N-MC; 3.2E−01 μM) was 38%, the “Test/Control (%) at Drug Concentration” value (NBXF SK-N-MC; 3.2E−02 μM) was 100% and the “Test/Control (%) at Drug Concentration” value (NBXF SK-N-MC; 3.2E−03 μM) was 101%. For the same compound, the “Test/Control (%) at Drug Concentration” value (OVXF 899L; OVXF 899, 1.0E+00 μM) was 54%, the “Test/Control (%) at Drug Concentration” value (OVXF 899L; OVXF 899, 1.0E−01 μM) was 92% and the “Test/Control (%) at Drug Concentration” value (OVXF 899L; OVXF 899, 1.0E−02 μM) was 97%. For the same compound, the “Test/Control (%) at Drug Concentration” value (OVXF 899L; OVXF 899, 1.0E−03 μM) was 100%, the “Test/Control (%) at Drug Concentration” value (OVXF 899L; OVXF 899, 1.0E−04 μM) was 88% and the “Test/Control (%) at Drug Concentration” value (OVXF 899L; OVXF 899, 3.2E+00 μM) was 65%. The “Test/Control (%) at Drug Concentration” value (OVXF 899L; OVXF 899, 3.2E−01 μM) was 94%, the “Test/Control (%) at Drug Concentration” value (OVXF 899L; OVXF 899, 3.2E−02 μM) was 94% and the “Test/Control (%) at Drug Concentration” value (OVXF 899L; OVXF 899, 3.2E−03 μM) was 97%. For the same compound, the “Test/Control (%) at Drug Concentration” value (OVXF 899L; OVXF 899, 3.2E−04 μM) was 98%, the “Abs. IC70” value (OVXF 899L; OVXF 899, 72 h) was over 3200 nM and the “Rel. IC70” value (OVXF 899L; OVXF 899, 72 h) was 425 nM. The “Bot. (%)” value (OVXF 899L; OVXF 899, 72 h, curve fit) was 57%, the “Top (%)” value (OVXF 899L; OVXF 899, 72 h, curve fit) was 95% and the IC50 (OVXF 899L; OVXF 899, 72 h, read-out: Abs. IC50) was over 3200 nM. It also gave an IC50 (OVXF 899L; OVXF 899, 72 h, read-out: Rel. IC50) of 401 nM.
